Several values for one entry are separate records, joined by “and”; a condition that tells them apart may be missing. Equal values may be shown once. Inconclusive results and toxic doses are left out. Rule for the calls: active = survival T/C of 150% or more; inactive = T/C below 125% in these data.
Test system: P388 leukemia ip, CD2F1 mice, survival T/C
Experiment: NCI In Vivo Anticancer Drug Screen. Data for tumor model P388 Leukemia (intraperitoneal) in CD2F1 (CDF1) mice
Conditions: endpoint: median survival time, higher = longer survival
Summary of the method: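 Mice carrying the transplanted tumor received test compound or vehicle. Survival was recorded in each group, and the value is the treated-group measurement divided by that of the vehicle-treated control group.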

[1] = dose: 50.0 mg/kg/injection, schedule: Q01DX005 (ip), vehicle: saline with Tween-80
[2] = dose: 100.0 mg/kg/injection, schedule: Q01DX005 (ip), vehicle: saline with Tween-80
[3] = dose: 200.0 mg/kg/injection, schedule: Q01DX005 (ip), vehicle: saline with Tween-80
[4] = dose: 60.0 mg/kg/injection, schedule: Q01DX005 (ip), vehicle: saline with Tween-80
[5] = dose: 120.0 mg/kg/injection, schedule: Q01DX005 (ip), vehicle: saline with Tween-80
[6] = dose: 50.0 mg/kg/injection, schedule: Q01DX009 (ip), vehicle: Klucel (hydroxypropylcellulose) (HPC)
[7] = dose: 100.0 mg/kg/injection, schedule: Q01DX009 (ip), vehicle: Klucel (hydroxypropylcellulose) (HPC)
[8] = dose: 200.0 mg/kg/injection, schedule: Q01DX009 (ip), vehicle: Klucel (hydroxypropylcellulose) (HPC)
[9] = dose: 50.0 mg/kg/injection, schedule: Q01DX005 (ip), vehicle: Klucel (hydroxypropylcellulose) (HPC)
[10] = dose: 100.0 mg/kg/injection, schedule: Q01DX005 (ip), vehicle: Klucel (hydroxypropylcellulose) (HPC)
[11] = dose: 200.0 mg/kg/injection, schedule: Q01DX005 (ip), vehicle: Klucel (hydroxypropylcellulose) (HPC)
[12] = dose: 100.0 mg/kg/injection, schedule: Q04DX002 (ip), vehicle: saline
[13] = dose: 200.0 mg/kg/injection, schedule: Q04DX002 (ip), vehicle: saline
[14] = dose: 400.0 mg/kg/injection, schedule: Q04DX002 (ip), vehicle: saline
[15] = dose: 60.0 mg/kg/injection, schedule: Q01DX005 (ip), vehicle: Klucel (hydroxypropylcellulose) (HPC)
[16] = dose: 120.0 mg/kg/injection, schedule: Q01DX005 (ip), vehicle: Klucel (hydroxypropylcellulose) (HPC)

Measured: T/C

O/N=C/c1c(Cl)nc2sccn12
inactive: dose: 50.0 mg/kg/injection, schedule: Q01DX001 (ip), vehicle: Klucel (hydroxypropylcellulose) (HPC) 100 % of control | dose: 100.0 mg/kg/injection, schedule: Q01DX001 (ip), vehicle: Klucel (hydroxypropylcellulose) (HPC) 100 % of control and 91 % of control | dose: 200.0 mg/kg/injection, schedule: Q01DX001 (ip), vehicle: Klucel (hydroxypropylcellulose) (HPC) 89 % of control and 97 % of control

CCOC(=O)c1[nH]c2c(cc(C=O)c3ccccc32)c1C
inactive: dose: 100.0 mg/kg/injection, schedule: Q01DX001 (ip), vehicle: saline with Tween-80 92 % of control | dose: 200.0 mg/kg/injection, schedule: Q01DX001 (ip), vehicle: saline with Tween-80 91 % of control | dose: 400.0 mg/kg/injection, schedule: Q01DX001 (ip), vehicle: saline with Tween-80 90 % of control

COc1c(CBr)c(CBr)c(OC)c2c1C(=O)c1ccccc1C2=O
inactive: dose: 12.5 mg/kg/injection, schedule: Q01DX005 (ip), vehicle: saline with Tween-80 100 % of control | dose: 25.0 mg/kg/injection, schedule: Q01DX005 (ip), vehicle: saline with Tween-80 99 % of control | [1] 100 % of control and 112 % of control | [2] 95 % of control

C[CH2][Sn]([CH2]C)([N]=C=S)[N]=C=S
inactive: dose: 3.12 mg/kg/injection, schedule: Q01DX009 (ip), vehicle: saline 99 % of control and 100 % of control | dose: 6.25 mg/kg/injection, schedule: Q01DX009 (ip), vehicle: saline 86 % of control and 93 % of control

CCCCCCCCCCC(CCCCCCCCCC)c1ccccc1
inactive: dose: 75.0 mg/kg/injection, schedule: Q01DX001 (ip), vehicle: saline sonified 91 % of control | dose: 150.0 mg/kg/injection, schedule: Q01DX001 (ip), vehicle: saline sonified 95 % of control | dose: 300.0 mg/kg/injection, schedule: Q01DX001 (ip), vehicle: saline sonified 95 % of control

Cc1cc(NC(=O)c2ccc(N=Nc3c(O)c(S(=O)(=O)O)cc4cc(S(=O)(=O)O)ccc34)cc2)ccc1N=Nc1ccc2cc(S(=O)(=O)O)cc(S(=O)(=O)O)c2c1
inactive: [1] 95 % of control | [2] 98 % of control | [3] 104 % of control

Cc1cc(=O)c2c(ccc3c(=O)cc(C)[nH]c32)[nH]1
inactive: dose: 30.0 mg/kg/injection, schedule: Q01DX005 (ip), vehicle: saline with Tween-80 93 % of control | [4] 91 % of control | [5] 100 % of control and 91 % of control

CCOC(=O)c1ccccn1
inactive: dose: 12.5 mg/kg/injection, schedule: Q01DX009 (ip), vehicle: saline 95 % of control | dose: 25.0 mg/kg/injection, schedule: Q01DX009 (ip), vehicle: saline 98 % of control | dose: 50.0 mg/kg/injection, schedule: Q01DX009 (ip), vehicle: saline 101 % of control | dose: 100.0 mg/kg/injection, schedule: Q01DX009 (ip), vehicle: saline 100 % of control

O=C1NC(=O)C2(O)NC(=O)NC2(O)N1 (stereo unspecified)
inactive: dose: 25.0 mg/kg/injection, schedule: Q01DX005 (ip), vehicle: saline 100 % of control | dose: 50.0 mg/kg/injection, schedule: Q01DX005 (ip), vehicle: saline 106 % of control | dose: 100.0 mg/kg/injection, schedule: Q01DX005 (ip), vehicle: saline 101 % of control | dose: 200.0 mg/kg/injection, schedule: Q01DX005 (ip), vehicle: saline 116 % of control | dose: 400.0 mg/kg/injection, schedule: Q01DX005 (ip), vehicle: saline 116 % of control

CCCCCCCCCCCCCCCCOc1ccc(S(=O)(=O)Nc2ccc(N)cc2O)cc1
inactive: [6] 110 % of control | [7] 94 % of control | [8] 112 % of control

COc1cccc(CCN2C(=O)CCC3=C2CCC3=O)c1
inactive: dose: 25.0 mg/kg/injection, schedule: Q01DX005 (ip), vehicle: Klucel (hydroxypropylcellulose) (HPC) 94 % of control | [9] 105 % of control | [10] 102 % of control | [11] 98 % of control

Cn1ccc(=O)n(C)c1=O
inactive: [12] 107 % of control | [13] 107 % of control | [14] 109 % of control

C/C(=N\NC(N)=Nc1ccccc1)c1ccc(Cl)c(Cl)c1
inactive: dose: 25.0 mg/kg/injection, schedule: Q04DX002 (ip), vehicle: saline with Tween-80 100 % of control | dose: 50.0 mg/kg/injection, schedule: Q04DX002 (ip), vehicle: saline with Tween-80 101 % of control | dose: 100.0 mg/kg/injection, schedule: Q04DX002 (ip), vehicle: saline with Tween-80 110 % of control

COC(=O)NN(C(=O)OC)C1CCCC2C1c1ccc3ccccc3c1N(C(=O)OC)N2C(=O)OC (stereo unspecified)
inactive: [15] 107 % of control | [16] 100 % of control | dose: 240.0 mg/kg/injection, schedule: Q01DX005 (ip), vehicle: Klucel (hydroxypropylcellulose) (HPC) 109 % of control

COc1cccc(C(Nc2nncs2)Nc2nncs2)c1[N+](=O)[O-]
inactive: [4] 98 % of control | [5] 98 % of control | dose: 240.0 mg/kg/injection, schedule: Q01DX005 (ip), vehicle: saline with Tween-80 101 % of control

N#CCC(=O)CCCCCCCO
inactive: dose: 100.0 mg/kg/injection, schedule: Q01DX001 (ip), vehicle: saline 93 % of control | dose: 400.0 mg/kg/injection, schedule: Q01DX001 (ip), vehicle: saline 92 % of control

CCN(CC)CCN1C(=O)C2C3C=CC(C2C1=O)C1C2C(=O)N(CCN(CC)CC)C(=O)C2C31 (stereo unspecified)
inactive: dose: 6.25 mg/kg/injection, schedule: Q01DX009 (ip), vehicle: water 104 % of control | dose: 12.5 mg/kg/injection, schedule: Q01DX009 (ip), vehicle: water 99 % of control and 100 % of control | dose: 25.0 mg/kg/injection, schedule: Q01DX009 (ip), vehicle: water 100 % of control and 111 % of control | dose: 50.0 mg/kg/injection, schedule: Q01DX009 (ip), vehicle: water 99 % of control and 103 % of control | dose: 100.0 mg/kg/injection, schedule: Q01DX009 (ip), vehicle: water 101 % of control and 111 % of control

COc1cc(C(=O)Nc2cccc(Cl)c2Cl)cc(OC)c1OC
inactive: [9] 104 % of control | [10] 96 % of control | [11] 92 % of control

CC(C)SC=O
inactive: [6] 100 % of control | [7] 107 % of control | [8] 106 % of control

Nc1nnnn1CCCl
inactive: [1] 94 % of control | [2] 103 % of control | [3] 106 % of control

CSc1n[nH]c(-c2cccs2)n1
inactive: [15] 104 % of control | [16] 105 % of control

CC1(C)CC(OC(=S)S)CC(C)(C)N1O
inactive: [12] 100 % of control | [13] 98 % of control | [14] 100 % of control

CCCCCCCCCCCC(=O)OC1CCC2(C)C(=CCC3C2CCC2(C)C(C(C)/C=C/C(CC)C(C)C)CCC32)C1 (stereo unspecified)
inactive: dose: 100.0 mg/kg/injection, schedule: Q04DX003 (ip), vehicle: other 102 % of control | dose: 200.0 mg/kg/injection, schedule: Q04DX003 (ip), vehicle: other 102 % of control

CO/N=C1\CC[C@@]2(C)[C@@H](CC[C@@H]3[C@@H]2CC[C@]2(C)C([C@H](C)CCCC(C)C)CC[C@@H]32)C1 (stereo partly specified)
inactive: [1] 97 % of control | [2] 95 % of control | [3] 100 % of control

Cc1nc(N)[nH]c(=O)c1CCCNc1ccc(C(=O)NC(CCC(=O)O)C(=O)O)cc1 (stereo unspecified)
inactive: [9] 100 % of control | [10] 97 % of control | [11] 100 % of control

O=C1C2C3C=CC(O3)C2C(=O)N1/N=C\C(O)C(O)C(O)C(O)CO (stereo unspecified)
inactive: [1] 97 % of control | [2] 98 % of control | [3] 95 % of control
